The record followed here is patent US20120010281A1, “ANTIMICROBIAL AND ANTI[…]” (THE TRUSTEES OF PRINCETON UNIVERSITY, priority 2010, published 2012).

≈ marks a conversion by molar mass, not a printed value.

For this assay, the system named is M. tuberculosis mc^27000. The assay is described as follows: microbe, parasite or virus in culture. The class given is cell-based. Conditions: for MIC: Mycobacterium tuberculosis, 120 h, range of assayed concentrations that bounds the mean of three independent determinations, read-out: mc^27000 7H9 MIC; for inhibitory activity against Mtb mc^27000 (in words): comment on the Table 1 MIC values, relative to tiamulin.

`C=C1C[C@@H](OC(=O)CO)C2CCCC3(CCC(=O)C23)C[C@@H]1O` (some centres unmarked) [Compound 4]: the MIC is > 200 µg/mL. With `C=C1C[C@@H](OC(=O)CSCCN(CC)CC)C2CCCC3(CCC(=O)C23)C[C@@H]1O` (some centres unmarked) [Compound 20a], the MIC lay within 50 to 100 µg/mL (≈ 118 to 236 µM) and the “inhibitory activity against Mtb mc^27000 (in words)” value (“inhibitory activity” for short) is on record as “attenuated activity”. In the same order, the values of `C=C1C[C@@H](OC(=O)CSCCN(CC)CC)C2CCCC3(CCC(=O)C23)C[C@H]1O` (some centres unmarked) [Compound 20c] are 12 to 25 µg/mL (≈ 28.3 to 59 µM) and “compares favorably to tiamulin”. With `CCN(CC)CCSCC(=O)O[C@H]1C/C(C)=C\CC23CCCC1C2C(=O)CC3` (some centres unmarked) [Compound 25], the MIC turned out to be 50 µg/mL (≈ 123 µM) and the “inhibitory activity” value is listed as “moderate, yet significant, level of activity”. In the same order, the values of `C=CC1(C)C[C@@H](OC(=O)CO)C2(C)C(C)CCC3(CCC(=O)C32)[C@@H](C)[C@@H]1O` (some centres unmarked) [Pleuromutilin (1), Pleuromutilin, reference compound] are 25 to 50 µg/mL (≈ 66 to 132 µM) and “low micromolar MIC values”.

`C=C[C@]1(C)C[C@@H](OC(=O)CSCCN(CC)CC)C2(C)C(C)CCC3(CCC(=O)C32)[C@@H](C)[C@@H]1O` (some centres unmarked) [tiamulin (3), tiamulin, reference compound]: the MIC lay in the range of 12 to 25 µg/mL (≈ 24.3 to 50.6 µM) and the “inhibitory activity” value is reported as “low micromolar MIC values”.
